Among the data in ChEMBL document CHEMBL1687789, “Characteristics and dissemination of mosaic penicillin-binding protein 2-harboring multidrug-resistant Neisseria gonorrhoeae isolates with reduced cephalosporin susceptibility in northern Taiwan” (2010) are Activity and MIC values, retold here.

Converted amounts (≈) assume the structure as drawn.

Format in all cases: functional
The subject of test [1] is Neisseria gonorrhoeae. Put plainly: Antimicrobial activity against multidrug-resistant Neisseria gonorrhoeae isolates assessed as resistant isolates by disk susceptibility test.
The test system of test [2] is Neisseria gonorrhoeae. Put plainly: Antimicrobial activity against multidrug-resistant Neisseria gonorrhoeae isolates harboring mosaic penicillin-binding protein 2 penA assessed as resistant isolates by disk susceptibility test.
Test [3] has as its system Neisseria gonorrhoeae. Put plainly: Antimicrobial activity against Neisseria gonorrhoeae isolates harboring non-mosaic penicillin-binding protein 2 penA assessed as resistant isolates by disk susceptibility test.
The test system of test [4] is Neisseria gonorrhoeae. Put plainly: Antimicrobial activity against multidrug-resistant Neisseria gonorrhoeae isolates harboring mosaic penicillin-binding protein 2 penA by Etest.
The test system of test [5] is Neisseria gonorrhoeae. Put plainly: Antimicrobial activity against Neisseria gonorrhoeae isolates harboring non-mosaic penicillin-binding protein 2 penA by Etest.
For test [6], the system named is Neisseria gonorrhoeae. Put plainly: Antimicrobial activity against multidrug-resistant Neisseria gonorrhoeae isolates by Etest.

The MIC is the lowest concentration that inhibits growth of the organism.

As for `O=C(O)c1cn(C2CC2)c2cc(N3CCNCC3)c(F)cc2c1=O` [CIPROFLOXACIN], the Activity in the test on Neisseria gonorrhoeae [1] amounted to 88.6%; in the test on Neisseria gonorrhoeae [2], 100%; in the test with Neisseria gonorrhoeae [3], 84.3%.

Regarding `CC1(C)S[C@@H]2[C@H](NC(=O)Cc3ccccc3)C(=O)N2[C@H]1C(=O)O` [PENICILLIN G], the Activity was 62.2% in the test with Neisseria gonorrhoeae [1], 71% with Neisseria gonorrhoeae [2] and 58.9% in the test on Neisseria gonorrhoeae [3].

On to `C=CC1=C(C(=O)O)N2C(=O)[C@@H](NC(=O)/C(=N\OCC(=O)O)c3csc(N)n3)[C@H]2SC1` [CEFIXIME], for which the minimal inhibitory concentration (MIC) in the test with Neisseria gonorrhoeae [4] is 0.125 mg/L (≈ 0.276 µM); in the test with Neisseria gonorrhoeae [5], 0.016 mg/L (≈ 0.0353 µM); in the test on Neisseria gonorrhoeae [6] it was 0.016 mg/L (≈ 0.0353 µM).

On to `CO/N=C(\C(=O)N[C@@H]1C(=O)N2C(C(=O)O)=C(CSc3nc(=O)c(O)nn3C)CS[C@H]12)c1csc(N)n1` [CEFTRIAXONE], for which the MIC is 0.023 mg/L (≈ 0.0415 µM) in the test with Neisseria gonorrhoeae [4], 0.002 mg/L (≈ 0.00361 µM) in the test on Neisseria gonorrhoeae [5] and 0.002 mg/L (≈ 0.00361 µM) against Neisseria gonorrhoeae [6].
